Literature values as cited in US11480580B2, “Methods and reagents to label bacteria and virus and identify their interacting proteins” (priority 2019, dated 2022).

Test system: ZIKV
Details: prior studies

For `CN(C)CCCN1c2ccccc2Sc2ccc(Cl)cc21` [chlorpromazine], the ZIKV infection is listed as “blocked”.
